Tests used:
[1] = test system: tobacco protoplasts; assay: Incubation of tobacco protoplasts with fluorescently labeled peptides, confocal microscopy; format: cell-based, Nicotiana benthamiana; settings: fluorescein-labelled peptide 20 μM, 1 hour, confocal (Olympus)
Method: Nicotiana benthamiana plants are grown for 6-8 weeks and kept in the dark for 24 hrs prior to all experiments. All pipetting is done slowly with wide bore pipette tips to prevent protoplast lysis. Leaves are cut on the underside in many shallow thin slices, with the center vein taken out, and incubated underside down with enzyme digest solution [2% cellulase and 2% macerozyme (Yakult Honsha Co Ltd, Japan) in CPW (cell protoplast washing) solution, pH 5.6 (Frearson E M, Power J B, Cocking E C (1973) Dev Biol 33: 130-137)] in […] Petri dishes for 3-5 hrs at 28° C. After incubation, leaves are gently shaken with forceps to release any remaining protoplasts, and medium is gently filtered through […] sieves and transferred into 50 mL centrifuge tubes. The medium is spun for 5 min at 300 g at 4° C., and a floating band of protoplasts is removed from the top of the suspension, resuspended in W5 wash solution (154 mM NaCl, 125 mM CaCl2.2H2O, 5 mM KCl, 5 mM glucose, 0.5 M mannitol adjusted to pH 5.8 with 0.1 M KOH), and spun for 3 mins at 300 g at 4° C. The pellet is gently layered on 5 mL of 20% maltose in a 15 mL centrifuge tube, and centrifuged 5 mins at 300 g. A floating band in the center of the solution is carefully removed and resuspended with MaMg solution (15 mM MgCl2, 0.1% MES, 0.4 M mannitol, adjusted to pH 5.6 with KOH), and spun for 3 mins at 300 g at 4° C. The protoplast suspension is diluted to 100,000 cells/ml using a hemocytometer.
A stock solution of fluoresceinated mTPs or cTPs (100 μM) prepared with sterile optimum water is added to protoplast suspension at a final concentration of 20 μM. Each suspension is incubated at room temperature for 1 hour in the dark. Following incubation, 25% Trypsin EDTA is added for 5 minutes and the solution is centrifuged for 2 minutes at 120 g. The pellet is resuspended in fresh MaMg media, and 1.5 μL MitoTracker® Orange CM-H2TMRos (M7511, Invitrogen) is added for 15 minutes, followed by centrifugation for 2 minutes at 120 g. Protoplasts are mounted on slides in 1% low melting point agar (2:1 ratio of agar to protoplast suspension) for confocal microscopy (Olympus; both XY cross section and XYZ depth images).
Cells are observed using a confocal microscope (Nikon C1, Nikon Canada Inc. or Olympus FluoView™) to analyse the localization of the fluoresceinated mTPs or cTPs (excitation wavelength 490 nm/emission wavelength 520 nm). Chloroplasts are identified by autofluorescence. The fluorescent dye MitoTracker® Orange CM-H2TMRos (M7511, Invitrogen) is used to stain mitochondria (excitation wavelength 554 nm/emission wavelength 576 nm). Fluorescence emissions are collected in z-confocal planes of […] and analyzed using EZ-C1 Software Version 3.6 (Nikon) or Olympus FluoView™ software version 2.0b (Olympus).

[2] = test system: MG (bovine mammary gland) cells; assay: Uptake of labeled peptides by MG cells, photometric cell imaging; format: cell-based; settings: for Average concentration of labeled peptide measured in cells, MG: cells exposed to labeled peptide at 17 μM; for Photometric Cell Imaging (average counts/sec) MG: 1 hr, background about 1×10^5 counts/sec
Method: MG cells are cultured in Dulbecco's Modified Eagle Medium (DMEM) containing 20% (v/v) fetal bovine serum (FBS) and 50 μg/ml gentamycin at 37° C. in a 95% humidified atmosphere containing 5% CO2. The cells are grown in Falcon™ 25 cm^2 or 75 cm^2 cell culture flasks until they reach confluency, then are detached with 0.25% trypsin and 0.02% EDTA and washed with DMEM.
Preparations used for photometric cell imaging are prepared by adding 1000 cells to a Nunc coverglass chamber (2.5 cm^2). Cells are cultured as described above for 3 to 7 days. The cell monolayers are rinsed three times with epithelial cell saline (pH 7.4).
Varying concentrations of fluoresceinated mTPs (100 μM) are added to epithelial cell saline to obtain a final working volume of 400 μl. Final concentrations added to the Caco-2, F1112 and MG cell monolayers as described above are 17 μM, 9 μM and 4 μM. Cells are incubated with the peptides for 1 hr in the dark at 37° C. in a 95% humidified atmosphere containing 5% CO2. At the end of the incubation period, the cell monolayer is rinsed three times with epithelial cell saline and 500 μl of epithelial cell saline is added.
Uptake of labeled peptides by cells is quantified using a photometric detector/cell-imaging system (PTI). An excitation scan is run to determine if uptake has occurred as indicated by peaks at the appropriate wavelengths and if the amount changes in a dose-dependent manner compared to unlabeled cells. A time-based scan is then performed at the optimal excitation and emission wavelength to quantify total uptake, using about 20 cells/view/replicate.

Row | Sequence | Organelle localization [1] | Average concentration of labeled peptide measured in cells, MG [2] [nm] | Photometric Cell Imaging (average counts/sec) MG ([2]; labeled peptide 4 μM) [counts/sec] | Photometric Cell Imaging (average counts/sec) MG ([2]; labeled peptide 9 μM) [counts/sec] | Photometric Cell Imaging (average counts/sec) MG ([2]; labeled peptide 17 μM) [counts/sec]
1 | MQTLTASSSVSSIQRHRPHPAGRRSSSVTFS (listed as Triticum aestivum) [cTP2] | localize to chloroplasts | – | – | – | –
2 | MFSYLPRYPLRAASARALVRATRPSYRSALLRYQ (listed as Triticum aestivum) [mTP1] | – | 78 | 400000 | 1800000 | 1900000
3 | MAALIPAIASLPRAQVEKPHPMPVSTRPGLVS (listed as Triticum aestivum) [cTP4] | localize to chloroplasts | – | – | – | –
4 | MAAWMRSLFSPLKKLWIRMH (Zea mays) [mTP2] | localize to mitochondria | 62 | 140000 | 160000 | 1500000
5 | MKLLWRLILSRKW (listed as Arabidopsis thaliana) [mTP3] | localize to mitochondria | 62 | 430000 | 1000000 | 1500000
6 | MSSPPPLFTSCLPASSPSIRRDSTSGSVTSPLR (listed as Arabidopsis thaliana) [cTP5] | localize to chloroplasts | – | – | – | –
7 | MGGCVSTPKSCVGAKLR (listed as Arabidopsis thaliana) [cTP1] | localize to chloroplasts | – | – | – | –
8 | MWWRRSRTNSLRYT (listed as Arabidopsis thaliana) [mTP4] | – | 58 | 430000 | 1200000 | 1400000
9 | MLFRLRRSVRLRGLLA (listed as Arabidopsis thaliana) [mTP5] | – | 60 | 440000 | 1400000 | 1600000
